Data taken from patent US11684610B2, “Pharmaceutical composition including 1,2-naphthoquinone derivative compound for prevention or treatment of solid cancers or blood cancers” (YUNGJIN PHARM. CO., LTD., priority 2018, dated 2023).

Experiments:
A549 (lung carcinoma) = test: Cell viability in solid cancer cells, WST assay, A549; type: cell-based, human; settings: A549, 1 to 30 μM, 6 hours
Excerpt: (§1) To confirm the possibility of use as a therapeutic agent for solid cancer, A549 cell line obtained from a […] with lung carcinoma, Hela cell line obtained from a person with cervix adenocarcinoma, HepG2 cell line obtained from a child with hepatocellular carcinoma, MCF7 cell line obtained from a person with breast adenocarcinoma, and Beas-2B cell line obtained from a normal lung for comparison with solid cancer cell line were used.
(§2) The A549 (lung carcinoma), Hela (cervix adenocarcinoma), HepG2 (hepatocellular carcinoma), MCF7 (breast carcinoma), and Beas-2B (normal lung) cell lines were used in DMEM medium containing 10% FBS, subcultured once every 2 days in an incubator under conditions of 37° C. and 5% CO2 and used in the experiment.
(§3) A549 (lung carcinoma), Hela (cervix adenocarcinoma), HepG2 (hepatocellular carcinoma), MCF7 (breast carcinoma), and Beas-2B (normal lung) cells cultured in Example 6-1 were inoculated into a 96-well plated at 1×10^4 cells/well, and then for the stabilization of cells, the cells were cultured in an incubator at 37° C. and 5% CO2 for 16 hours or more. Subsequently, among the compounds synthesized in Example 1, the compounds 1, 10 and 72 were treated at a concentration of 1 to 30 μM, and then cultured for 6 hours. At this time, DMSO and β-lapachone were used as the control group. After 4 hours of incubation, 10 μl of WST solution was added to each cell, the reaction was carried out for 2 hours, and the absorbance was measured at 450 nm with a multi-scan machine. The cell viabilities of A549 (lung carcinoma), Hela (cervix adenocarcinoma), HepG2 (hepatocellular carcinoma) and MCF7 (breast carcinoma) cells are shown in Table 4 and FIG. 6 below.

[1] = tested on: Hela (cervix adenocarcinoma); test: Cell viability in solid cancer cells, WST assay, Hela; type: cell-based, human; settings: 1 to 30 μM, 6 hours
Excerpt: as §1, §2, §3

[2] = tested on: HepG2 (hepatocellular carcinoma); test: Cell viability in solid cancer cells, WST assay, HepG2; type: cell-based, human; settings: HepG2, 1 to 30 μM, 6 hours
Excerpt: as §1, §2, §3

MCF7 (breast carcinoma) = test: Cell viability in solid cancer cells, WST assay, MCF7; type: cell-based, human; settings: MCF7, 1 to 30 μM, 6 hours
Excerpt: as §1, §2, §3

KG1α cells [3] = test: Cell viability in KG1α cells, WST assay; type: cell-based, human; settings: 0.1 to 3 μM
Excerpt: (§4) The constructed cell lines were also diverse. Thus, in order to confirm the applicability to a wide range of therapeutic agents that are not therapeutic agents for specific types of acute leukemia, in the present invention, KG1α cells constructed by selecting only cells having a stem cell phenotype from KG1 cells, which are cell lines obtained from a person with acute myelogenous leukemia, were used. HL60 cells, which are cell lines obtained from a person with acute promyelocytic leukemia, and U937 cells, which are cell lines obtained from a person with histiocytic lymphoma, were used.
(§5) KG1α and HL60 cells were cultured in IMDM medium containing 20% FBS (fetal bovine serum), and U937 cells were cultured in RPMI 1640 medium containing 10% FBS. All cells were cultured in an incubator under conditions of 37° C. and 5% CO2, and subcultured once every 2 or 3 days and used in the experiment.
KG1α cells are cells resistant to idarubicin and cytarabine, which are the therapeutic agents for acute myeloid leukemia, and are refractory AML cells. KG1α cells cultured in Example 2-1 were cultured into a 96-well plate at 1×10^5 cells/well, and then cultured in an incubator at 37° C. and 5% CO2 for 16 hours or more for the stabilization of cells. […] At this time, DMSO was used as a control group. After 24 hours, each cell was treated with 10 μl of WST solution, reacted for 2 hours, and then absorbance was measured at 450 nm with a multi-scan machine, and the cell viability of KG1α cells was confirmed as shown in Table 4 below.

K562 cells = test: Cell viability in chronic leukemia K562 cells, WST assay; type: cell-based, human; settings: 0.1 to 5 μM
Method: K562 cells obtained from a person with chronic myeloid leukemia were cultured in an incubator under conditions of 37° C. and 5% CO2 using RPMI medium containing 10% FBS (fetal bovine serum), and subcultured once every two days and used in the experiment.
The K562 cells cultured in Example 4-1 were inoculated into a 96-well plate at 1×10^5 cells/well, and then, for the stabilization of cells, the cells were cultured in an incubator at 37° C. and 5% CO2 for 16 hours or more. Subsequently, among the compounds synthesized in Example 1, the compounds 1, 10, and 72 and 192 were treated at a concentration of 0.1 to 5 μM and then cultured for 4 hours. At this time, DMSO was used as a control group. After 4 hours of incubation, 10 μl of WST solution was added to each cell and then reacted for 2 hours.

[4] = tested on: A549, Hela, HepG2, MCF7 and Beas-2B cells; test: Cell viability WST assay, all solid cancer and normal lung lines taken together; type: cell-based, human; settings: 6 hours
Excerpt: as §1, §2, §3

HL60 cells [5] = test: Cell viability of HL60 cells, WST-1; type: cell-based, human; settings: 24 hours, WST-1, FIG. 1A
Excerpt: as §4, §5
(§6) The HL60 cells or U937 cells cultured in Example 2-1 were inoculated into a 96-well plate at 1×10^5 cells/well, and then for the stabilization of cells, the cells were cultured in an incubator at 37° C. and 5% CO2 for 16 hours or more. Subsequently, the compound 1 synthesized in Example 1 was treated at concentrations of 0.1, 0.5 and 1 μM, respectively, and reacted for 24 hours. […] The absorbance was then measured at 450 nm with a multi-scan machine.

U937 cells = test: Cell viability of U937 cells, WST-1; type: cell-based, human; settings: 24 hours, WST-1, FIG. 1B
Excerpt: as §4, §5, §6

KG1α cells [6] = test: Apoptosis or cell necrosis in KG1α cells, FACS (Annexin-V/PI) and western blot; type: cell-based, human; settings: 0-2 μM, 24 hours, FIG. 2
Method: (§7) Cell death was typically known as apoptosis or cell necrosis. Thus, in order to confirm whether the death of acute leukemia cells induced by the compound 1 of the present invention was due to apoptosis or cell necrosis, fluorescence activated cell sorting (FACS) and western blot were performed.
(§8) First, in order to conduct FACS, KG1α cells or HL60 cells cultured in […] were inoculated in a 6-well plate at 1×10^7 cells/well, and for the stabilization of cells, the cells were cultured in an incubator at 37° C. and 5% CO2 for 16 hours or more. Subsequently, the compound 1 was treated at concentrations of 0, 0.1, 0.5, 1 and 2 μM, respectively, and cultured for 24 hours, and then the cells were recovered and washed with cold PBS. Only 1×10^6 cells were taken and resuspended with PBS, and then stained with Annexin-V (green fluorescence), which increases during apoptosis, and Pi (propidium iodide, red fluorescence), which […]. The degree of the two indicators were quantified by FACS, the FACS results for KG1α cells are shown in FIG. 2A, and the FACS results for HL60 cells are shown in FIG. 3A.
(§9) Next, in order to perform western blot, KG1α cells or HL60 cells cultured in Example 2-1 were inoculated into a 6-well plate at 1×10^7 cells/well. In order to stabilize the cells, the cells were cultured for 16 hours or more in an incubator at 37° C. and 5% CO2. […]

HL60 cells [7] = test: Apoptosis or cell necrosis in HL60 cells, FACS (Annexin-V/PI) and western blot; type: cell-based, human; settings: 0-2 μM, 24 hours, FIG. 3
Method: as §7, §8, §9

[8] = tested on: acute myelogenous leukemia mouse model in which FLT3-ITD was overexpressed; test: Changes in monocyte cells in acute leukemia mouse model overexpressing FLT3-ITD; type: in vivo; settings: 120 mg/kg in diet, 8 weeks, FACS, FIG. 4
Method: In order to confirm the change in the expression of the FLT3-ITD gene by Compound 1 of the present invention, peripheral blood and spleen were collected after 8 weeks from the animals of an experimental group in which Compound 1 of the present invention was mixed and administered in a diet at a concentration of 120 mg/kg using a mouse (jackson lab) that systemically overexpressed FLT3-ITD, and a control group to which only a solvent was administered (untreated group).
In the case of peripheral blood, cold 1×PBS was added to a small amount of blood, centrifuged, washed, to which RBC lysis buffer was added and reacted for 5 minutes at room temperature to remove red blood cells. […] The antibodies were reacted on ice at a ratio of 1:200 for 20 minutes, washed with 1×PBS, then resuspended with 1×PBS containing 1% FBS, and quantified by FACS, and shown in FIG. 4A.
In the case of the spleen, the cells were crushed on a mesh having a 40 μm hole, separated into single cells, and then washed with cold 1×PBS to which RBC lysis buffer was added and reacted at room temperature for 5 minutes to remove red blood cells. […] The antibodies were reacted on ice at a ratio of 1:200 for 20 minutes, washed with 1×PBS, resuspended in 1×PBS containing 1% FBS, and quantified by FACS, and shown in FIGS. 4B and 4C.

BCR-ABL fusion gene = test: Expression level of BCR-ABL fusion gene in K562 cells, western blot; type: cell-based, human; settings: 0.5-2.5 μM, 6 hours, FIG. 5
Method: The BCR-ABL fusion gene, existing only in chronic myelogenous leukemia, generated and transmitted continuous cell growth signals to induce the growth of cancer cells. Thus, after chronic myeloid leukemia cells were treated with the compound of the present invention, western blot was used to confirm whether the expression level of the BCR-ABL fusion gene was reduced.
First, the K562 cells cultured in Example 4-1 were inoculated into a 60 mm plate at 5×10^6 cells/well, and then for the stabilization of cells, the cells were cultured in an incubator at 37° C. and 5% CO2 for 16 hours or more. The, the compound 1 was treated at concentrations of 0.5, 1, 1.5, 2 and 2.5 μM, respectively, and cultured for 6 hours, and then the cells were recovered. A protein extraction buffer (RIPA buffer) was added to the cells obtained in the above process, and reacted on ice for 30 minutes to break the cell membrane, which was centrifuged to remove a supernatant, and then the protein was extracted. The extracted protein was developed by electrophoresis using SDS-PAGE, and then transferred to the PVDF membrane. Then, the antibody related to the BCR-ABL fusion gene was reacted, and then the amount of the protein was confirmed using the ECL buffer, and Western blot results for the K562 cell line are shown in FIG. 5.

C57BL/6 mice = test: Acute toxicity experiment, mortality in mice; type: in vivo; settings: 120 mg/kg orally, 24 hours after administration
Method: This experiment was conducted to examine the acute toxicity to the animal body acutely (within 24 hours) when the compound 1 of the present invention was ingested in excess in a short period of time, and to determine the mortality rate. 20 C57BL/6 mice, which are common mice, were prepared, and ten mice were assigned to each group. Only 0.1% SLS (sodium lauryl sulfate) was administered to the control group, and the compound 1 was orally administered to the experimental group at a concentration of 120 mg/kg, respectively. As a result of examining each mortality rate 24 hours after administration, both the control group and the experimental group to which the compound 1 was administered survived.

Structure (SMILES)	IC50 (KG1α cells [3]; 24 hours)	IC50 (KG1α cells [3]; Homo sapiens, KG-1, 24 h)	IC50 (K562 cells; 4 hours)	IC50 (K562 cells; Homo sapiens, K562, 4 h)	IC50 (A549 (lung carcinoma); Homo sapiens)	IC50 ([1]; Homo sapiens)	IC50 ([2]; Homo sapiens)	IC50 (MCF7 (breast carcinoma); Homo sapiens)	killing effect compared with β-lapachone [4]	also measured
CC1(C)CCC2=C(O1)c1ccccc1C(=O)C2=O [beta-rapacon, β-lapachone, reference compound]	–	–	–	–	–	–	–	–	–	IC50 (A549 (lung carcinoma)): 5 µM; IC50 [1]: 4.8 µM; IC50 [2]: 12.3 µM; IC50 (MCF7 (breast carcinoma)): 13.2 µM
O=C1C(=O)c2[nH]c(C3CCCO3)nc2-c2ccccc21 (stereo not drawn) [compound 72]	0.7 µM	0.5 to 1 µM	1.4 µM	1 to 2 µM	6.5 µM	9.1 µM	12.6 µM	12.5 µM	killing effect similar to β-lapachone	–
CC(C)c1nc2c([nH]1)C(=O)C(=O)c1ccccc1-2 [compound 1]	0.5 µM	0.5 to 1 µM	1.6 µM	1 to 2 µM	5.1 µM	4.6 µM	10.1 µM	14.4 µM	killing effect similar to β-lapachone	cell killing effect (cell viability), HL60 cells (HL60 cells [5]): concentration-dependent cell killing effects; cell killing effect (cell viability), U937 cells (U937 cells): concentration-dependent cell killing effects; apoptosis or cell necrosis, KG1α cells (KG1α cells [6]): died due to apoptosis; apoptosis or cell necrosis, HL60 cells (HL60 cells [7]): both apoptosis and cell necrosis occurred; suppression of proliferation of monocyte cells in peripheral blood and spleen [8]: excellent effect of suppressing the proliferation of monocyte cells; expression level of the BCR-ABL fusion gene (BCR-ABL fusion gene): decreased in a concentration-dependent manner; expression of phospho-bcr-abl (BCR-ABL fusion gene): also decreased; expression of phospho-stat5 (BCR-ABL fusion gene): also decreased; mortality, acute toxicity (C57BL/6 mice): survived
CCc1nc2c([nH]1)C(=O)C(=O)c1ccccc1-2 [compound 10]	0.5 µM	0.5 to 1 µM	–	0.9 µM	5.5 µM	7.7 µM	12.1 µM	14.1 µM	killing effect similar to β-lapachone	–
